# Laboratory results: the supplement of paper PMC10307832
# Legend:
# Test in all cases: relative viability (nuclei count vs DMSO), 5 days (fraction); higher = more cells survive
# [1] = compound: CC1=C(C=C(C=C1)NC(=O)C2=CC(=CC=C2)C(C)(C)C#N)NC3=CC4=C(C=C3)N=CN(C4=O)C [AZ628] + O=C(c1cc(Cc2n[nH]c(=O)c3ccccc23)ccc1F)N1CCN(C(=O)C2CC2)CC1 [Olaparib] (partner 8 µM)
# Procedure, shortened: (§1)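 Relative viability equals treated-well nuclei counts divided by vehicle-well nuclei counts. Counts came from 4× images of lung cancer cell lines grown in 1536-well plates for 5 days after pin-tool dosing on the day after seeding. Dosing used one drug alone or a fixed anchor-drug dose plus five library-drug doses (not always all listed) in √10 steps, and values are medians of duplicate plates.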
# [2] = compound: CC1=C(C=C(C=C1)NC(=O)C2=CC(=CC=C2)C(C)(C)C#N)NC3=CC4=C(C=C3)N=CN(C4=O)C [AZ628] + CS(=O)(=O)CCNCc1ccc(-c2ccc3ncnc(Nc4ccc(OCc5cccc(F)c5)c(Cl)c4)c3c2)o1 [Lapatinib] (partner 2 µM)
# Procedure, shortened: as §1
# [3] = compound: C1CC2=C(C1)C=C(C=C2)OC3=NC(=C4C(=N3)N(C=N4)CC5=CC=C(C=C5)C6=CC=CC=C6)N[C@@H](CC7=CC=CC=C7)CO [QS11] + CC(=O)c1c(C)c2cnc(Nc3ccc(N4CCNCC4)cn3)nc2n(C2CCCC2)c1=O [Palbociclib] (partner 0.5 µM)
# Procedure, shortened: as §1
# [4] = compound: C1CC2=C(C1)C=C(C=C2)OC3=NC(=C4C(=N3)N(C=N4)CC5=CC=C(C=C5)C6=CC=CC=C6)N[C@@H](CC7=CC=CC=C7)CO [QS11] + CS(=O)(=O)N1CCN(Cc2cc3nc(-c4cccc5[nH]ncc45)nc(N4CCOCC4)c3s2)CC1 [Pictilisib] (partner 1 µM)
# Procedure, shortened: as §1
Cell Line,relative viability ([1]; first compound 0.08 µM),relative viability ([1]; first compound 0.253 µM),relative viability ([1]; first compound 0.8 µM),relative viability ([1]; first compound 2.53 µM),relative viability ([1]; first compound 8 µM),relative viability ([2]; first compound 0.08 µM),relative viability ([2]; first compound 0.253 µM),relative viability ([2]; first compound 0.8 µM),relative viability ([2]; first compound 2.53 µM),relative viability ([2]; first compound 8 µM),relative viability ([3]; first compound 0.08 µM),relative viability ([3]; first compound 0.253 µM),relative viability ([3]; first compound 0.8 µM),relative viability ([3]; first compound 2.53 µM),relative viability ([3]; first compound 8 µM),relative viability ([4]; first compound 0.08 µM),relative viability ([4]; first compound 0.253 µM),relative viability ([4]; first compound 0.8 µM),relative viability ([4]; first compound 2.53 µM),relative viability ([4]; first compound 8 µM)
NCI-H650,0.43,0.462,0.482,0.512,0.627,1.2,0.778,1.08,1.2,0.898,0.328,0.34,0.304,0.286,0.327,0.861,0.939,0.902,0.876,0.958
SW 1573,0.462,0.423,0.365,0.374,0.346,0.997,0.964,0.283,0.884,0.874,0.388,0.35,0.339,0.223,0.161,0.53,0.481,0.425,0.311,0.298
NCI-H322M,0.805,0.755,0.819,0.774,0.783,0.674,0.737,0.747,0.646,0.657,0.516,0.461,0.468,0.517,0.593,0.55,0.483,0.492,0.545,0.49
ABC-1,0.987,0.712,0.868,0.508,0.732,1.04,1.09,1.08,1.16,0.985,0.805,0.782,0.652,0.64,0.5,0.657,0.6,0.651,0.764,1.06
NCI-H1993,1.18,1.19,1.05,0.933,0.773,0.883,0.78,0.766,0.834,0.838,0.646,0.544,0.59,0.708,0.641,0.843,0.935,0.799,0.875,0.635
NCI-H1355,0.73,0.784,0.684,0.745,0.574,0.974,0.934,0.947,0.944,0.862,0.43,0.314,0.299,0.35,0.38,0.399,0.299,0.378,0.475,0.443
PC-3 [JPC-3],1.1,1.16,1.22,1.23,1.1,0.488,0.5,0.52,0.47,0.471,,0.586,0.396,0.595,0.575,0.699,0.652,0.707,0.648,0.601
NCI-H1651,0.171,0.186,0.172,0.184,0.191,0.985,0.86,0.865,0.753,1.11,0.542,0.53,0.4,0.48,0.581,0.604,0.657,0.53,0.471,0.439
LK-2,0.874,0.549,0.684,0.689,0.309,1.06,0.56,0.885,0.799,0.537,0.723,0.826,0.777,0.507,0.705,0.605,0.698,0.537,0.547,0.602
NCI-H2023,0.452,0.427,0.522,0.508,0.433,0.914,0.859,0.914,0.763,0.689,0.42,0.397,0.302,0.36,0.29,0.255,0.224,0.291,0.309,0.283
COR-L23,0.459,0.365,0.444,0.448,0.317,1.11,1.05,1.04,0.968,0.683,0.319,0.298,0.274,0.196,0.181,0.807,0.717,0.806,0.662,0.681
NCI-H1734,0.684,0.584,0.516,0.6,0.382,1.08,1.07,0.896,0.908,0.699,0.374,0.389,0.31,0.32,0.324,0.44,0.433,0.408,0.38,0.358
NCI-H23,0.316,0.312,0.331,0.227,0.216,1.18,0.958,0.698,0.722,0.528,0.492,0.387,0.354,0.347,0.329,0.394,0.413,0.405,0.433,0.361
NCI-H647,0.848,0.616,0.495,0.551,0.573,1.25,1.02,0.982,1.19,0.894,0.412,0.367,0.394,0.325,0.394,,0.379,0.41,0.685,0.478
NCI-H1915,0.256,0.229,0.232,0.26,0.168,1.05,1,0.83,0.653,0.704,0.53,0.644,,0.5,0.486,0.958,0.932,,0.896,0.937
201T,0.909,0.865,0.908,0.868,0.926,1.01,0.988,1.06,1.12,1.18,0.369,0.406,0.345,0.395,0.277,0.669,0.599,0.634,0.672,0.611
